Data set [1] deals with male KK-A^y mice. The data set is described as follows: Decrease of plasma glucose and triglyceride in KK-Ay mice. It counts as in vivo. The settings on record: non-fasting, 10 mg/kg/day orally for 4 consecutive days, 24 hours after final administration, vs control group. On the procedure: The test compounds (compounds of Examples 2, 6, 8, 16, 26, 27 and 31) were suspended in 5% gum arabic solution and administered (10 mg/kg/day) orally to the administration group for 4 consecutive days from the next day. The 5% gum arabic solution was orally administered to the control group.

Data set [2] deals with male db/db mice. The settings on record: for Decrease (%) in glucose level / Decrease (%) in triglyceride: plasma, 24 hours after final administration. On the procedure:
Using db/db mice genetically showing high plasma glucose, hypertriglyceridemia, insulin resistance and obesity, the pharmacological activity of the test compound of Example 6 was examined.
Blood was drawn under a non-fasting state from the tail vein of male db/db mice, the glucose level and triglyceride level of the plasma were measured using commercially available assay kits (glucose CII-test WAKO and triglyceride G-test WAKO, Wako Pure Chemical Industries, Ltd.). The mice were grouped (6 mice per group) into a control group and test compound (compound of Example 6) administration groups (3 and 10 mg/kg/day), such that the mean and standard deviation of the body weight and the plasma glucose and plasma triglyceride levels in each group were nearly the same. The test compound was suspended in 0.5% methylcellulose solution and administered orally for 2 consecutive weeks from the next day. The 0.5% methylcellulose solution was orally administered to the control group. Blood was drawn under a non-fasting state from the tail vein 24 hours after the final administration and the glucose and triglyceride levels of the plasma were measured. The decrease in the plasma glucose and triglyceride levels was calculated from the following formula.

Data set [3] deals with 6-week-old male SD rats. The conditions noted are these: 30 and 100 mg/kg/day orally, 4 consecutive weeks. On the procedure:
Using 6-week-old male SD rats, toxicity by repeat administration was examined.
(§1) The rats were grouped (6 rats per group) into a control group and test compound (compound of Example 6) administration groups (30 and 100 mg/kg/day), such that the mean and the standard deviation of the body weight of the rats were nearly the same. The test compound was suspended in 0.5% methylcellulose solution and administered orally for 4 consecutive weeks from the next day. The 0.5% methylcellulose solution was orally administered to the control group. The rats were fasted for 16 hr from the last day of administration, anesthetized by intraperitoneal administration of pentobarbital sodium (50 mg/kg) 24 hr after the final administration and the blood was drawn. Using EDTA-added blood, hematocrit value and erythrocyte count were measured, and using serum, AST (GOT) and ALT (GPT) were measured. In addition, the total blood volume was calculated. The white fat around the epididymides, and the liver and heart were removed and wet weights thereof were measured.

The subject of data set [4] is 6-week-old female Wistar rats. The settings on record: 30 and 100 mg/kg/day orally, 2 consecutive weeks. On the procedure: Using 6-week-old female Wistar rats, toxicity by repeat administration was examined.
as §1, with “for 2” for “for 4”, “the uterus,” for “the epididymides,”

Setting [5] is: 3 and 10 mg/kg/day orally, 2 weeks.
[6] abbreviates: 3 mg/kg/day orally for 2 consecutive weeks.
The mark [7] stands for this setting: 10 mg/kg/day orally for 2 consecutive weeks.

Where two headings read alike, the source gives them in different places.

For the compound `CCCCC=CC(=O)N1Cc2cc(OCCc3nc(-c4ccccc4)oc3C)ccc2C[C@H]1C(=O)O` [Example 2, 2-(2-heptenoyl)-7-[2-(5-methyl-2-phenyloxazol-4-yl)ethoxy]-1,2,3,4-tetrahydroisoquinoline-(3S)-carboxylic acid], in data set [1], the “Decrease (%) in glucose level” value is 46.8% and the “Decrease (%) in triglyceride” value turned out to be 44.9%.
In the case of `CC=CC=CC(=O)N1Cc2cc(OCCc3nc(-c4ccccc4)oc3C)ccc2C[C@H]1C(=O)O` [Example 6], in data set [2] (setting [5]), the “plasma glucose level after treatment” value is recorded as “almost the normal levels” and the “plasma triglyceride level after treatment” value is on record as “almost the normal levels”. Moreover, in data set [2] (setting [6]), the “Decrease (%) in glucose level” value is listed as 59.9% and the “Decrease (%) in triglyceride” value is reported as 77.1%. Also, in data set [2] (setting [7]), the “Decrease (%) in glucose level” value worked out at 64.4% and the “Decrease (%) in triglyceride” value is on record as 78.8%. In addition, in data set [1], the “Decrease (%) in glucose level” value worked out at 45.9% and the “Decrease (%) in triglyceride” value was found to be 45.7%. In data set [3], the “body weight, difference from control group” value is “no significant difference”; the “erythrocyte count, difference from control group” value is listed as “no significant difference”; the “hematocrit value, difference from control group” value was “no significant difference”; the “total blood volume, difference from control group” value is “no significant difference”. Moreover, in data set [3], the “weight of the heart, difference from control group” value was “no significant difference”; the “weight of the liver, difference from control group” value is “no significant difference”; the “weight of white fat around the epididymides, difference from control group” value is recorded as “no significant difference”. Moreover, in data set [3] (serum), the “ALT (GPT), difference from control group” value is on record as “no significant difference” and the “AST (GOT), difference from control group” value is “no significant difference”. In data set [4], the “body weight, difference from control group” value is reported as “no significant difference”; the “erythrocyte count, difference from control group” value is recorded as “no significant difference”; the “hematocrit value, difference from control group” value is listed as “no significant difference”; the “total blood volume, difference from control group” value is on record as “no significant difference”. In data set [4], the “weight of the heart, difference from control group” value was “no significant difference”; the “weight of the liver, difference from control group” value is on record as “no significant difference”; the “weight of white fat around the uterus, difference from control group” value is on record as “no significant difference”. In data set [4] (serum), the “ALT (GPT), difference from control group” value is on record as “no significant difference” and the “AST (GOT), difference from control group” value is “no significant difference”.
Regarding `CCCC#CC(=O)N1Cc2cc(OCCc3nc(-c4ccccc4)oc3C)ccc2C[C@H]1C(=O)O` [Example 8, 2-(2-hexynoyl)-7-[2-(5-methyl-2-phenyloxazol-4-yl)ethoxy]-1,2,3,4-tetrahydroisoquinoline-(3S)-carboxylic acid], in data set [1], the “Decrease (%) in glucose level” value worked out at 46.1% and the “Decrease (%) in triglyceride” value is on record as 55.2%.
The matching figures for `CC(C)(C)N.CC=CC=CC(=O)N1Cc2cc(OCCc3nc(-c4ccc(C(C)(C)C)cc4)oc3C)ccc2C[C@H]1C(=O)O` [Example 16, tert-butylamine 7-{2-[2-(4-tert-butylphenyl)-5-methyloxazol-4-yl]ethoxy}-2-(2,4-hexadienoyl)-1,2,3,4-tetrahydroisoquinoline-(3S)-carboxylate]: 60.9% and 73.4%.
On the same counts, the results for `CC(C)(C)N.CC=CC=CC(=O)N1Cc2cc(OCCc3nc(-c4ccc(OCc5ccccc5)cc4)oc3C)ccc2C[C@H]1C(=O)O` [Example 26, tert-butylamine 7-{2-[2-(4-benzyloxyphenyl)-5-methyloxazol-4-yl]ethoxy}-2-(2,4-hexadienoyl)-1,2,3,4-tetrahydroisoquinoline-(3S)-carboxylate] are 43.7% and 67.8%.
On the same counts, the results for `CC(C)(C)N.CC=CC=CC(=O)N1Cc2cc(OCCc3nc(-c4ccc(C(C)C)cc4)oc3C)ccc2C[C@H]1C(=O)O` [Example 27, tert-butylamine 2-(2,4-hexadienoyl)-7-{2-[2-(4-isopropylphenyl)-5-methyloxazol-4-yl]ethoxy}-1,2,3,4-tetrahydroisoquinoline-(3S)-carboxylate] are 55.8% and 73.8%.
As for `CC(C)(C)N.CC=CC=CC(=O)N1Cc2cc(OCCc3nc(-c4ccc(N(C)C)cc4)oc3C)ccc2C[C@H]1C(=O)O` [Example 31, tert-butylamine 7-{2-[2-(4-dimethylaminophenyl)-5-methyloxazol-4-yl]ethoxy}-2-(2,4-hexadienoyl)-1,2,3,4-tetrahydroisoquinoline-(3S)-carboxylate], in data set [1], the “Decrease (%) in glucose level” value came to 39.4% and the “Decrease (%) in triglyceride” value amounted to 20.1%.

Values taken from patent US6872732B2, “Heterocyclic derivatives and medicinal use thereof” (Kyoto Pharmaceutical Industries, Ltd., priority 2001, dated 2005).
